What all share (assay): relative viability (nuclei count vs DMSO), 5 days (fraction); higher = more cells survive
Compound in experiment [1]: CN(NC(=O)CC(=O)NN(C)C(=S)c1ccccc1)C(=S)c1ccccc1 [Elesclomol] + CC(=O)c1c(C)c2cnc(Nc3ccc(N4CCNCC4)cn3)nc2n(C2CCCC2)c1=O [Palbociclib] (partner 0.5 µM)
The method, boiled down: (§1)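 Lung cancer cell lines in 1536-well plates were dosed by pin tool the day after seeding, either with one drug alone or with a fixed anchor-drug dose plus five library-drug doses (not always all listed) in √10 steps. After 5 days, cells were fixed and their nuclei stained in one step (final 0.05% Triton X-100, 1% formaldehyde, 1 ug/ml Hoechst), then counted on 4× images. Relative viability is the nuclei count in treated wells divided by that in vehicle wells. Values are medians of duplicate plates.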

Compound in experiment [2]: CN(NC(=O)CC(=O)NN(C)C(=S)c1ccccc1)C(=S)c1ccccc1 [Elesclomol] + CCNC(=O)c1noc(-c2cc(C(C)C)c(O)cc2O)c1-c1ccc(CN2CCOCC2)cc1 [Luminespib] (partner 0.01 µM)
The method, boiled down:
as §1

Compound in experiment [3]: CN(NC(=O)CC(=O)NN(C)C(=S)c1ccccc1)C(=S)c1ccccc1 [Elesclomol] + CS(=O)(=O)CCNCc1ccc(-c2ccc3ncnc(Nc4ccc(OCc5cccc(F)c5)c(Cl)c4)c3c2)o1 [Lapatinib] (partner 2 µM)
The method in brief: as §1

Compound in experiment [4]: CN(NC(=O)CC(=O)NN(C)C(=S)c1ccccc1)C(=S)c1ccccc1 [Elesclomol] + CC(=O)Nc1cccc(-n2c(=O)n(C3CC3)c(=O)c3c(Nc4ccc(I)cc4F)n(C)c(=O)c(C)c32)c1 [Trametinib] (partner 0.02 µM)
The method, boiled down:
as §1

Compound in experiment [5]: CN(NC(=O)CC(=O)NN(C)C(=S)c1ccccc1)C(=S)c1ccccc1 [Elesclomol] + CS(=O)(=O)N1CCN(Cc2cc3nc(-c4cccc5[nH]ncc45)nc(N4CCOCC4)c3s2)CC1 [Pictilisib] (partner 1 µM)
The method, boiled down:
as §1

With EKVX, the relative viability in experiment [1] (first compound 0.003162 µM) worked out at 0.334; in experiment [1] (first compound 0.01 µM), 0.155; in experiment [1] (first compound 0.03162 µM), 0.143; in experiment [1] (first compound 0.1 µM) it was 0.105; in experiment [2] (first compound 0.003162 µM), 0.831; in experiment [2] (first compound 0.01 µM) it was 0.539. Further, the relative viability in experiment [2] (first compound 0.03162 µM) came out at 0.169; in experiment [2] (first compound 0.1 µM), 0.145; in experiment [3] (first compound 0.003162 µM), 0.204; in experiment [3] (first compound 0.01 µM), 0.204; in experiment [3] (first compound 0.03162 µM) it was 0.16; in experiment [3] (first compound 0.1 µM), 0.141. Moreover, the relative viability stood at 0.313 in experiment [4] (first compound 0.003162 µM); 0.188 in experiment [4] (first compound 0.01 µM); 0.144 in experiment [4] (first compound 0.03162 µM); 0.105 in experiment [4] (first compound 0.1 µM); 0.386 in experiment [5] (first compound 0.003162 µM); 0.249 in experiment [5] (first compound 0.01 µM). Moreover, the relative viability in experiment [5] (first compound 0.03162 µM) was 0.176; in experiment [5] (first compound 0.1 µM), 0.157.
For EMC-BAC-2, the relative viability amounted to 0.514 in experiment [1] (first compound 0.003162 µM); 0.369 in experiment [1] (first compound 0.01 µM); 0.455 in experiment [1] (first compound 0.03162 µM); 0.352 in experiment [1] (first compound 0.1 µM); 1.23 in experiment [2] (first compound 0.003162 µM); 1.04 in experiment [2] (first compound 0.01 µM). The relative viability in experiment [2] (first compound 0.03162 µM) worked out at 0.535; in experiment [2] (first compound 0.1 µM), 0.383; in experiment [3] (first compound 0.003162 µM), 0.841; in experiment [3] (first compound 0.01 µM), 0.797; in experiment [3] (first compound 0.03162 µM), 0.757; in experiment [3] (first compound 0.1 µM), 0.541. Also, the relative viability in experiment [4] (first compound 0.003162 µM) was 0.813; in experiment [4] (first compound 0.01 µM) it was 0.808; in experiment [4] (first compound 0.1 µM) it was 0.4; in experiment [5] (first compound 0.003162 µM), 0.606; in experiment [5] (first compound 0.01 µM), 0.374; in experiment [5] (first compound 0.03162 µM), 0.48. Further, the relative viability in experiment [5] (first compound 0.1 µM) came to 0.316.
For EPLC-272H, the relative viability in experiment [1] (first compound 0.003162 µM) turned out to be 0.352; in experiment [1] (first compound 0.01 µM) it was 0.117; in experiment [1] (first compound 0.03162 µM) it was 0.118; in experiment [1] (first compound 0.1 µM) it was 0.112; in experiment [2] (first compound 0.003162 µM), 0.333; in experiment [2] (first compound 0.03162 µM), 0.576. The relative viability in experiment [2] (first compound 0.1 µM) was found to be 0.125; in experiment [3] (first compound 0.003162 µM) it was 0.873; in experiment [3] (first compound 0.03162 µM) it was 1.04; in experiment [3] (first compound 0.1 µM), 0.119; in experiment [4] (first compound 0.003162 µM) it was 0.264; in experiment [4] (first compound 0.01 µM), 0.111. The relative viability worked out at 0.09 in experiment [4] (first compound 0.03162 µM); 0.119 in experiment [4] (first compound 0.1 µM); 0.349 in experiment [5] (first compound 0.003162 µM); 0.341 in experiment [5] (first compound 0.03162 µM); 0.11 in experiment [5] (first compound 0.1 µM).
Consider H3255, for which the relative viability in experiment [1] (first compound 0.003162 µM) is 0.331; in experiment [1] (first compound 0.01 µM), 0.309; in experiment [1] (first compound 0.03162 µM), 0.285; in experiment [1] (first compound 0.1 µM), 0.254; in experiment [2] (first compound 0.003162 µM), 0.883; in experiment [2] (first compound 0.01 µM) it was 0.875. Also, the relative viability in experiment [2] (first compound 0.03162 µM) was determined as 0.547; in experiment [2] (first compound 0.1 µM) it was 0.395; in experiment [3] (first compound 0.003162 µM) it was 0.246; in experiment [3] (first compound 0.01 µM) it was 0.265; in experiment [3] (first compound 0.03162 µM), 0.207; in experiment [3] (first compound 0.1 µM), 0.232. Further, the relative viability in experiment [4] (first compound 0.003162 µM) is 0.585; in experiment [4] (first compound 0.01 µM), 0.532; in experiment [4] (first compound 0.03162 µM), 0.328; in experiment [4] (first compound 0.1 µM), 0.284; in experiment [5] (first compound 0.003162 µM) it was 0.433; in experiment [5] (first compound 0.01 µM), 0.336. Besides, the relative viability worked out at 0.315 in experiment [5] (first compound 0.03162 µM) and 0.266 in experiment [5] (first compound 0.1 µM).

These data come from the supplement of paper PMC10307832.
